Assay results published in patent US20230012368A1 (Hoffmann-La Roche Inc., priority 2018, published 2023).
Counter-ions that a name gives are not always drawn.

system: Acinetobacter baumannii ATCC 17978; assay: Antimicrobial susceptibility testing: 90% growth inhibitory concentration (IC90) determination; format: cell-based; details: 90% growth inhibitory concentration; Acinetobacter baumannii ATCC17978; Iso-Sensitest broth, OD 600 nm over 16h; hydrochloride; read-out: ATCC17978 IC90
Procedure, shortened: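 Compounds serially twofold diluted (e.g. 50 to 0.097 μM final) in Iso-Sensitest broth, inoculated at ~5×10^(5) CFU/ml, incubated at 35±2° C. OD600 read every 20 minutes over 16h. IC90 taken as concentration inhibiting 90% of growth during logarithmic phase.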

Row | IC90 [nM] | Compound
1 | 450 | CCc1cc(Nc2nccn3c(-c4ccc(OC)c(F)c4F)cnc23)ccc1C(=O)NCC(O)CN (centres unmarked) [Example 147, N-(3-amino-2-hydroxy-propyl)-4-[[3-(2,3-difluoro-4-methoxy-phenyl)imidazo[1,2-a]pyrazin-8-yl]amino]-2-ethyl-benzamide;hydrochloride]

same assay, conditions: Acinetobacter baumannii, ATCC17978, 16 h, 90% growth inhibitory concentration; Acinetobacter baumannii ATCC17978; Iso-Sensitest broth, OD 600 nm over 16h; read-out: ATCC17978 IC90

Row | Compound | IC90 [nM]
2 | Cc1cc(Nc2nccn3c(-c4ccc(OC(F)F)cc4)cnc23)ccc1C(=O)N(C)CCCSc1nnnn1C [Example 178, 4-[[3-[4-(difluoromethoxy)phenyl]im-dazo[1,2-a]pyrazin-8-yl]amino]-N,2-dimethyl-N-[3-(1-methyltetrazol-5-yl)sulfanylpropyl]benzamide] | 1000
3 | Cc1cc(Nc2nccn3c(-c4ccc(OCC#N)c(F)c4F)cnc23)ccc1C(=O)NCCCNC(=O)[C@@H]1C[C@](C)(O)CN1 [Example 134, (2S,4S)-N-[3-[[4-[[3-[4-(cyanomethoxy)-2,3-difluoro-phenyl]imidazo[1,2-a]pyrazin-8-yl]amino]-2-methyl-benzoyl]amino]propyl]-4-hydroxy-4-methyl-pyrrolidine-2-carboxamide formate] | 80
4 | CCc1cc(Nc2nccn3c(-c4ccc(OC)c(F)c4F)cnc23)ccc1C(=O)NCCCNC(=O)C(CNC(=N)N)NC(=O)[C@@H](N)CCC(=O)O (mixture of isomers) [Example 155, (4S)-4-Amino-5-((1-((3-(4-((3-(2,3-difluoro-4-methoxyphenyl)imidazo[1,2-a]pyrazin-8-yl)amino)-2-ethylbenzamido)propyl)amino)-3-guanidino-1-oxopropan-2-yl)amino)-5-oxopentanoic acid trihydrochloride (Epimers 1:1)] | 340
5 | CCc1cc(Nc2nccn3c(-c4ccc(OCC#N)c(F)c4F)cnc23)ccc1C(=O)NCCNC(=O)CN [Example 136, N-[2-[(2-aminoacetyl)amino]ethyl]-4-[[3-[4-(cyanomethoxy)-2,3-difluoro-phenyl]imidazo[1,2-a]pyrazin-8-yl]amino]-2-ethyl-benzamide formate] | 60
6 | CCc1cc(Nc2nccn3c(-c4ccc(OC)c(F)c4F)cnc23)ccc1C(=O)NCC[C@@H](C)NC(=O)[C@@H](N)CCCNC(=N)N [Example 340, N-[(3R)-3-[[(2S)-2-amino-5-carbamimidamidopentanoyl]amino]butyl]-4-[[3-(2,3-difluoro-4-methoxyphenyl)imidazo[1,2-a]pyrazin-8-yl]amino]-2-ethylbenzamide; hydrochloride] | 590
7 | COc1ccc(-c2cnc3c(Nc4ccc(C(=O)NCC(=O)N5CCC(O)CC5)c(C)c4)nccn23)cc1 [Example 20, N-(2-(4-hydroxypiperidin-1-yl)-2-oxoethyl)-4-((3-(4-methoxyphenyl)imidazo [1,2-a]pyrazin-8-yl)amino)-2-methylbenzamide] | 650
8 | CCc1cc(Nc2nccn3c(-c4ccc(OC(F)F)c(F)c4F)cnc23)ccc1C(=O)NCCNC(=O)CN(C)C [Example 294, 4-[[3-[4-(difluoromethoxy)-2,3-difluorophenyl]imidazo[1,2-a]pyrazin-8-yl]amino]-N-[2-[[2-(dimethylamino)acetyl]amino]ethyl]-2-ethylbenzamide] | 140
9 | CCc1cc(Nc2nccn3c(-c4ccc(Cl)c(F)c4F)cnc23)ccc1C(=O)NCCCN [Example 229, N-(3-aminopropyl)-4-[[3-(4-chloro-2,3-difluorophenyl)imidazo[1,2-a]pyrazin-8-yl]amino]-2-ethylbenzamide;hydrochloride] | 1200
10 | COc1ccc(-c2cnc3c(Nc4ccc(C(=O)NCC5(O)CCNCC5)c(C)c4)nccn23)cc1F [Example 285, 4-[[3-(3-fluoro-4-methoxyphenyl)imidazo[1,2-a]pyrazin-8-yl]amino]-N-[(4-hydroxypiperidin-4-yl)methyl]-2-methylbenzamide;2,2,2-trifluoroacetic acid] | 2600
11 | COc1ccc(-c2cnc3c(Nc4ccc(C(=O)NCCCCCNC(=O)OC(C)(C)C)c(C)c4)nccn23)cc1 [Example 223, tert-butyl N-[5-[[4-[[3-(4-methoxyphenyl)imidazo[1,2-a]pyrazin-8-yl]amino]-2-methylbenzoyl]amino]pentyl] carbamate] | 1100

Other lines, results leading:

Row | IC90 [nM] | Compound
12 | 520 | CCc1cc(Nc2nccn3c(-c4ccc(Oc5ccncn5)c(F)c4F)cnc23)ccc1C(=O)NCCNC(=O)[C@@H](N)CCNC(=N)N [Example 440, N-[2-[[(2S)-2-amino-4-guanidino-butanoyl]amino]ethyl]-4-[[3-(2,3-difluoro-4-pyrimidin-4-yloxy-phenyl)imidazo[1,2-a]pyrazin-8-yl]amino]-2-ethyl-benzamide; formic acid]
13 | 35 | COc1ccc(-c2cnc3c(Nc4ccc(C(=O)NCCCCCCN)c(C)c4)nccn23)c(F)c1F [Example 493, N-(6-aminohexyl)-4-((3-(2,3-difluoro-4-methoxyphenyl)imidazo[1,2-a]pyrazin-8-yl)amino)-2-methylbenzamide hydrochloride]
14 | 380 | CCc1cc(Nc2nccn3c(-c4ccc(Oc5ccccn5)c(F)c4F)cnc23)ccc1C(=O)NCCCCCC(=O)N1CCN[C@H](CO)C1 [Example 478, 4-[[3-[2,3-difluoro-4-(2-pyridyloxy)phenyl]imidazo [1,2-a]pyrazin-8-yl]amino]-2-ethyl-N-[6-[(3S)-3-(hydroxymethyl)piperazin-1-yl]-6-oxo-hexyl]benzamide]
15 | 350 | CCc1cc(Nc2nccn3c(-c4ccc(OC)c(F)c4F)cnc23)ccc1C(=O)NCC(N)CO (centres unmarked) [Example 525, N-(2-amino-3-hydroxypropyl)-4-((3-(2,3-difluoro-4-methoxyphenyl)imidazo[1,2-a]pyrazin-8-yl)amino)-2-ethylbenzamide hydrochloride]
16 | 670 | CCc1cc(Nc2nccn3c(-c4ccc(OCC#CCO)c(F)c4F)cnc23)ccc1C(=O)NCCCN [Example 419, N-(3-aminopropyl)-4-[[3-[2,3-difluoro-4-(4-hydroxybut-2-ynoxy)phenyl]imidazo[1,2-a]pyrazin-8-yl]amino]-2-ethyl-benzamide]
17 | 90 | COc1ccc(-c2cnc3c(Nc4ccc(C(=O)NCCNC(=O)[C@@H]5C[C@@H](O)CN5)c(C)c4)nccn23)c(F)c1F [Example 363, (2S,4R)-N-[2-[[4-[[3-(2,3-difluoro-4-methoxyphenyl)imidazo[1,2-a]pyrazin-8-yl]amino]-2-methylbenzoyl]amino]ethyl]-4-hydroxypyrrolidine-2-carboxamide]
18 | 900 | Cc1cc(Nc2nccn3c(-c4ccc(OC(F)F)cc4)cnc23)ccc1C(=O)NCCNC(=O)N1CCNCC1 [Example 345, N-[2-[[4-[[3-[4-(difluoromethoxy)phenyl]im-idazo[1,2-a]pyrazin-8-yl]amino]-2-methylbenzoyl]amino]ethyl] piperazine-1-carboxamide]
19 | 24 | CCc1cc(Nc2nccn3c(-c4ccc(OC)c(F)c4F)cnc23)ccc1C(=O)NC/C=C/CN [Example 536, N-[(E)-4-aminobut-2-enyl]-4-[[3-(2,3-difluoro-4-methoxyphenyl)imidazo[1,2-a]pyrazin-8-yl]amino]-2-ethylbenzamide]
20 | 410 | CCc1cc(Nc2nccn3c(-c4ccc(OC)c(F)c4F)cnc23)ccc1C(=O)NCC(=O)NCCNC [Example 428, 4-[[3-(2,3-difluoro-4-methoxy-phenyl)imidazo[1,2-a]pyrazin-8-yl]amino]-2-ethyl-N-[2-[2-(methylamino)ethylamino]-2-oxo-ethyl]benzamide; formic acid]
21 | 380 | CCc1cc(Nc2nccn3c(-c4ccc(Oc5nccc(C)n5)c(F)c4F)cnc23)ccc1C(=O)NCCNC(=O)[C@@H](N)CCNC(=N)N [Example 445, (S)-N-(2-(2-amino-4-guanidinobutanamido)ethyl)-4-((3-(2,3-difluoro-4-((4-methylpyrimidin-2-yl)oxy)phenyl)imidazo[1,2-a]pyrazin-8-yl)amino)-2-ethylbenzamide formiate 1:2]
22 | 450 | CCc1cc(Nc2nccn3c(-c4ccc(OC)c(F)c4F)cnc23)ccc1C(=O)N[C@@H](C)CNC(=N)C(C)C [Example 503, 4-[[3-(2,3-difluoro-4-methoxyphenyl)imidazo[1,2-a]pyrazin-8-yl]amino]-2-ethyl-#N!-[(2#S!)-1-(2-methylpropanimidoylamino)propan-2-yl]benzamide]
23 | 620 | CCc1cc(Nc2nccn3c(-c4ccc(Oc5ccc(F)cn5)c(F)c4F)cnc23)ccc1C(=O)NCCNC(=O)[C@H](N)CCNC(=N)N [Example 429, N-[2-[[(2R)-2-amino-4-guanidino-butanoyl]amino]ethyl]-4-[[3-[2,3-difluoro-4-[(5-fluoro-2-pyridyl)oxy]phenyl]imidazo [1,2-a]pyrazin-8-yl]amino]-2-ethyl-benzamide; formic acid]
24 | 490 | COc1ccc(-c2cnc3c(Nc4ccc(C(=O)NCCCN)c(C)c4F)nccn23)c(F)c1F [Example 479, N-(3-aminopropyl)-4-((3-(2,3-difluoro-4-methoxyphenyl)imidazo[1,2-a]pyrazin-8-yl)amino)-3-fluoro-2-methylbenzamide]
25 | 210 | CCc1cc(Nc2nccn3c(-c4ccc(OC)c(F)c4F)cnc23)ccc1C(=O)NCC(=O)NCCO [Example 423, 4-((3-(2,3-difluoro-4-methoxyphenyl)imidazo[1,2-a]pyrazin-8-yl)amino)-2-ethyl-N-(2-((2-hydroxyethyl)amino)-2-oxoethyl)benzamide]
26 | 110 | CCc1cc(Nc2nccn3c(-c4ccc(OC)c(F)c4F)cnc23)ccc1C(=O)NC[C@H]1CCNC1 [Example 530, (S)-4-((3-(2,3-difluoro-4-methoxyphenyl)imidazo[1,2-a]pyrazin-8-yl)amino)-2-ethyl-N-(pyrrolidin-3-ylmethyl)benzamide hydrochloride]
